This note sets out measurements from publication PMC3608514 (Advances in enzyme regulation, 2009).

As usually defined, the Ki is the equilibrium dissociation constant of an inhibitor or competing ligand from its target. A higher Ki goes with a looser hold on the target.

Test [1] has as its target T1, DGK-θ (Homo sapiens, UniProt P52824).
T1 sequence (P52824 1-942): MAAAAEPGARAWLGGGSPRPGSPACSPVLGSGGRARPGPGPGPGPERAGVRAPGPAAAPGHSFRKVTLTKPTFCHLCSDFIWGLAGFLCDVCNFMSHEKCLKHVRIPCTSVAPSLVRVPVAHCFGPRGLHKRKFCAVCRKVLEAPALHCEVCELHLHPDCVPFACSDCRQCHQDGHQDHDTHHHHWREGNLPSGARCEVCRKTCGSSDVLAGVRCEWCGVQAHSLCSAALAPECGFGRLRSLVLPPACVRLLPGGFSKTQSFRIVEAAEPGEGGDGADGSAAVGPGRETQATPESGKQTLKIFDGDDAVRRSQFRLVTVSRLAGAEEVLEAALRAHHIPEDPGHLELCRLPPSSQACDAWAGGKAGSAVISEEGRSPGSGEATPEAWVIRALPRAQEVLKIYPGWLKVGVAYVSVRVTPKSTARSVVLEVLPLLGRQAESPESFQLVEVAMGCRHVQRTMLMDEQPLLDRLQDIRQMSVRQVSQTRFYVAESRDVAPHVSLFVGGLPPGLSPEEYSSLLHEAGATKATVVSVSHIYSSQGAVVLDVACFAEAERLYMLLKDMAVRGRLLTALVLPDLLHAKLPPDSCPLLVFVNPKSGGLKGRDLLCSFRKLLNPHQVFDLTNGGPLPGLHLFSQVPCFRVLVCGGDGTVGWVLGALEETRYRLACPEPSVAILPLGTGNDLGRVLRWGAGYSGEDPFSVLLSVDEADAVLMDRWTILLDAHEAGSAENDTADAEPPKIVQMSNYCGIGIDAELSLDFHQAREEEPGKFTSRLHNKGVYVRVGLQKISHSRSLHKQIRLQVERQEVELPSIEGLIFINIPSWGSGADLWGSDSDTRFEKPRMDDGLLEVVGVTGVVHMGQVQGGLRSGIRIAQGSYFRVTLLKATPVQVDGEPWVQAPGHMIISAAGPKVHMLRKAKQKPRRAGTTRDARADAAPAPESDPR

Test [2] deals with T1, DGK-θ. Briefly: DGK activity assay. The format is biochemical.

Molecules are shown by their SMILES.

For `O=P(O)(O)OP(=O)(O)O` [NaPPi, sodium pyrophosphate], the “DGK activity assay in OG mixed micelles with cytosol over-expressing DGKθ; dose” value in test [1] was 1 to 2 mM.

In test [2], `COc1ccc2c(c1)CC[C@@H]1[C@@H]2CC[C@]2(C)[C@@H](NCCCCCCN3C(=O)C=CC3=O)CC[C@@H]12` [U73122] returned an inhibition constant (Ki) of roughly 20 µM.
